US20190111040A1, “IN VIVO AMELIORATION OF ENDOGENOUS ANTI-TUMOR AUTOANTIBODIES TARGETING SURFACE TUMOR ANTIGENS VIA LOW-DOSE P4N” (THE JOHNS HOPKINS UNIVERSITY, priority 2016, published 2019)

Assays:
[1] = test system: Raji or OKT3 cells; test: Cell proliferation assay with THP-1-conditioned media; type: cell-based; details: conditioned medium from THP-1 cells treated with P4N and the inhibitor
Protocol: (§1) FIGS. 5A-5F depict the expression of Activin A/BAFF induced by P4N treatments. (A) P4N induced Activin A or BAFF expression in human PBMCs as determined by RT-PCR. S1-S5 display different individual blood samples collected from 5 different human donors; N, no treatment; P, P4N-treatment (3 μM). The change in Activin A and BAFF expression (mean of 5 patients) relative to the control (NC) is plotted as a histogram (B) The effect of increasing dosages of P4N for 12 h on mRNA and protein levels of Activin A or BAFF in THP-1 cells was analyzed by RT-PCR and ELISA. (C) The effect of 6 μM P4N on mRNA and protein levels of Activin A or BAFF in THP-1 cells was determined at a different time period. (D) The effect of different inhibitors on Activin A-induced BAFF expression was examined. The expression of BAFF mRNA in inhibitor-treated THP-1 cells was determined by RT-PCR, and (E) BAFF protein secretion was measured by ELISA. (F) The effect of THP-1 conditioned media on the proliferation of Raji cells and OKT3 hybridoma cells were determined. Media were harvested, in which THP-1 cells were pre-treated without inhibitor (2) or with SB431542 (3), A83-01 (4), SIS3 (5), SB203580 (6) or PD98059 (7) and then treated with P4N for 12 h. The results are expressed as % viable cells relative to the control (NC, media from untreated THP-1 cells). All values are the means of triplicate samples±SEM. The significant differences in the results of inhibitor and P4N-treated groups compared with the untreated group are indicated by ***P<0.001.
Cell proliferation assay. Raji or OKT3 cells (1×10^4/well) were seeded and treated with THP-1-conditioned media. After 48 h the number of viable cells was determined by MTT assay. The indices of cell proliferation were calculated as previously described.

[2] = test system: THP-1 cells; test: Effect of inhibitors on Activin A-induced BAFF expression in THP-1 cells; type: cell-based; details: THP-1 cells treated with inhibitor and P4N
Protocol: as §1
Reverse transcription PCR. Human PBMCs or THP-1 cells were treated with P4N, and then the mRNA expression of INHBA and BAFF in these cells was measured by reverse transcription PCR. Briefly, total cellular RNA was extracted with Trizol reagent (Invitrogen) and reverse-transcribed into cDNA using the Superscript RT-kit (Invitrogen). The cDNA of INHBA and BAFF were then amplified by PCR. GAPDH cDNA in the samples was used to normalize the loading amounts in each reaction. Finally, PCR products were resolved by electrophoresis on 2% agarose gels and visualized with ethidium bromide.

[3] = test system: THP-1 cells; test: TNF-α, IL-8 and Activin A ELISA in THP-1 cells with bestatin and P4N; type: cell-based; details: 10 μM bestatin 2 h, then 3 μM P4N
Protocol: FIGS. 6A-6E show P4N directly regulated LTA4H to induce monocyte inflammation. (A) P4N (orange) was docked with LTA4H by iGEMDOCK software (gemdock.life.nctu.edu.tw/dock/igemdock.php). RB3041 (Pink) is a small molecule inhibitor that identifies the active site of LTA4H. The amino acids that potentially interact with P4N are noted. The effects of P4N and bestatin on monocytes and their expression of (B) LTB4, (C) TNF-α, (D) IL-8, or (E) Activin A were determined and shown for different times. All values were expressed as the mean±SEM. **P<0.05, group P4N vs group (P4N+bestatin).
ELISA assays. THP-1 cells (1×10^6 cells/ml/well) in a 24-well culture plate were pretreated with 10 μM bestatin (a LTA4H inhibitor, Sigma-Aldrich) for 2 h and then treated with 3 μM P4N for various time intervals. The levels of LTB4 in the culture media were determined by the LTB4 (Enzo Life Sciences, Farmingdale, N.Y.) (R&D) ELISA Kits. The amount of TNF-α, IL-8 and Activin A in cultured media were measured in a similar manner.

[4] = test system: LTB4 production; details: reference (32); cited from earlier work

Row | Compound | proliferative activity of conditioned medium on Raji or OKT3 cells [1] | BAFF transcription and protein expression [2] | other results
1 | Cc1cccc(-c2nn(C(=S)Nc3ccccc3)cc2-c2ccnc3ccccc23)n1 [A83-01] | lost its activity | significantly reduced | 
2 | CC(C)C[C@H](NC(=O)[C@@H](O)[C@H](N)Cc1ccccc1)C(=O)O [Bestatin] |  |  | P4N-induced expression of Activin A [3]: inhibited; expression of TNF-α and IL-8 [3]: not suppressed
3 | CC(Cc1ccc(O)c(O)c1)C(C)Cc1ccc(O)c(O)c1 (centres unmarked) [NDGA, Nordihydroguaiaretic acid] |  |  | LTB4 production [4]: inhibits LTB4 production
4 | COc1cccc(-c2cc(=O)c3ccccc3o2)c1N [PD98059] |  | had fewer effects | 
5 | C[S+]([O-])c1ccc(-c2nc(-c3ccncc3)c(-c3ccc(F)cc3)[nH]2)cc1 (centres unmarked) [SB203580] |  | had fewer effects | 
6 | NC(=O)c1ccc(-c2nc(-c3ccc4c(c3)OCO4)c(-c3ccccn3)[nH]2)cc1 [SB431542] | lost its activity | significantly reduced | 
7 | COc1cc2c(cc1OC)CN(C(=O)/C=C/c1c(-c3ccccc3)n(C)c3ncccc13)CC2 [SIS3] | lost its activity | significantly reduced | 
